Assay results: publication PMC10762035, “Molecular basis of human trace amine-associated receptor 1 activation” (Nature Communications, 2024)
Numbering of substitutions follows the chain as printed. Values joined by “and” are separate entries in the source; they are usually repeats but may differ in a detail not shown here. Equal values may be shown once.

Tests used:
hTA1 I290Y = target: T1, hTA1 I290Y (Homo sapiens, UniProt Q96RJ0, I290Y); test: GloSensor cAMP accumulation assay, I290Y mutant; assay type: cell-based; settings: hTA1 I290Y (N=3), log[Compound];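 also: normalized to the maximum response of β-PEA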
T1 construct: expressed in transfected cells; host or cells: HEK293T
T1 sequence (Q96RJ0 1-339 I290Y): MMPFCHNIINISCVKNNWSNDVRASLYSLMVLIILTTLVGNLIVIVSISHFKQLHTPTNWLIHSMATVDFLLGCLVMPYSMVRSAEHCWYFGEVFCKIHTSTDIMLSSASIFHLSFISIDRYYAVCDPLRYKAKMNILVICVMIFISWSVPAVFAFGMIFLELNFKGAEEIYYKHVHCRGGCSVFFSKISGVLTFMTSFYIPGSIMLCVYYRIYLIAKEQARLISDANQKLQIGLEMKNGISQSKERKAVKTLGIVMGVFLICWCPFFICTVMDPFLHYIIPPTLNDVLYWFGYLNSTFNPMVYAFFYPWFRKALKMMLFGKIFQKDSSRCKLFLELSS

hTA1 C96S = target: T2, hTA1 C96S (Homo sapiens, UniProt Q96RJ0, C96S); test: GloSensor cAMP accumulation assay, C96S mutant; assay type: cell-based; settings: log[Compound]
T2 construct: expressed in transfected cells; host or cells: HEK293T
T2 sequence (Q96RJ0 1-339 C96S): T1 sequence (Q96RJ0 1-339 I290Y) with C96S, Y290I

hTA1 T194A = target: T3, hTA1 T194A (Homo sapiens, UniProt Q96RJ0, T194A); test: GloSensor cAMP accumulation assay, T194A mutant; settings: for cAMP accumulation response, individual replicate values of the concentration-response curve: hTA1 T194A, log[Agonist], Supplementary Figure 5 source data
T3 sequence (Q96RJ0 1-339 T194A): T1 sequence (Q96RJ0 1-339 I290Y) with T194A, Y290I

SMILES: NCCc1ccccc1 [β-PEA, β-phenethylamine]
- cAMP accumulation response, normalized (concentration-response source data, single replicate values) (hTA1 I290Y; M = -9.522): -0.9566 and -2.803 and -1.264 and -1.109 and -0.7424 and -1.475 and 0.4278 and -4.0841 and -0.7002
- cAMP accumulation response, normalized (concentration-response source data, single replicate values) (hTA1 I290Y; M = -10): -0.0332 (2×) and -1.88 and -5.873 and -4.407 and -4.773 and 2.684 and -1.828 and -0.7002
- cAMP accumulation response, normalized (concentration-response source data, single replicate values) (hTA1 I290Y; M = -10.522): -0.6488
- Normalized Luminescence Counts (hTA1 C96S; C96S, M = -5, single replicates (N=2)): 35.6736 and 42.2638 and 54.1262 and 8.922 and 12.7948 and 20.5413
- Normalized Luminescence Counts (hTA1 C96S; C96S, M = -5.522, single replicates (N=2)): 25.7883 and 20.5161 and 22.4932 and 16.6681 and -2.698 and 8.922
- Normalized Luminescence Counts (hTA1 C96S; C96S, M = -6, single replicates (N=2)): 12.6079 and 10.6308 and 7.995 and -2.698 (2×) and 5.048
- Normalized Luminescence Counts (hTA1 C96S; C96S, M = -6.522, single replicates (N=2)): 0.7455 (2×) and 3.382 and 1.175 and -6.571 (2×)
- Normalized Luminescence Counts (hTA1 C96S; C96S, M = -7, single replicates (N=2)): 0.7455 and -1.232 and -0.5726 and -2.698 (2×) and -6.571
- Normalized Luminescence Counts (hTA1 C96S; C96S, M = -7.522, single replicates (N=2)): -0.5726 and -1.891 and 0.08646 and -4.6346 (2×) and -6.571
- Normalized Luminescence Counts (hTA1 C96S; C96S, M = -8, single replicates (N=2)): 2.064 and 0.7455 and -0.5726 and 1.175 and 6.985 and 5.048
- Normalized Luminescence Counts (hTA1 C96S; C96S, M = -8.522, single replicates (N=2)): 2.723 and -1.232 and -1.891 and 6.985 and 1.175 and 8.922
- Normalized Luminescence Counts (hTA1 C96S; C96S, M = -9, single replicates (N=2)): -0.5726 and 0.08646 and -1.232 and 10.8582 and 1.175 and -0.7614
- Normalized Luminescence Counts (hTA1 C96S; C96S, M = -9.522, single replicates (N=2)): 2.064 and -3.209 and -1.232 and -2.698 (2×) and 3.112
- Normalized Luminescence Counts (hTA1 C96S; C96S, M = -10, single replicates (N=2)): 0.08646 and -0.5726 and -1.232 and -8.508 and -2.698 and -0.7614
- Normalized Luminescence Counts (hTA1 C96S; C96S, M = -10.522, single replicates (N=2)): 4.7 and -1.232 and -1.891 and -10.4444 and -0.7614 and -2.698
- Normalized Luminescence Counts (hTA1 C96S; C96S, M = -11, single replicates (N=2)): 2.723 and -0.5726 and 0.7455 and -10.4444 and 3.112 and 1.175
- Normalized Luminescence Counts (hTA1 C96S; C96S, M = -11.522, single replicates (N=2)): 0.08646 and 2.064 and -2.55 and -10.4444
- Normalized Luminescence Counts (hTA1 C96S; M = -11.522, single replicates, mutant block above C178S): -0.6791 and -0.9294 and -0.1556 and 1.551 and 0.7492 and 1.23
- Normalized Luminescence Counts (hTA1 C96S; M = -12, single replicates, mutant block above C178S): -0.6108 and -0.9294 and -0.5425 and 1.07 and 0.8561 and 1.283
- Normalized Luminescence Counts (hTA1 C96S; M = -12.522, single replicates, mutant block above C178S): -0.7929 and -0.6336 and -1.02 and 1.337 and 1.283 and 0.8561
- pEC50 values, Mean (hTA1 T194A; T149A (so in the source), single experiments (3 replicates each)): 7.395 and 7.196 and 7.094
- Emax values, Mean (hTA1 T194A; T149A (so in the source), single experiments (3 replicates each), β-PEA = 100): 100
- EC50 (hTA1 T194A; T194A): 0.0636 µM
- Span ± SEM (Emax normalized to β-PEA) (hTA1 T194A; T194A): 100 ± 2.46
- pEC50 ± SEM (hTA1 T194A; T194A): 7.23 ± 0.13
- cAMP accumulation response, individual replicate values of the concentration-response curve (hTA1 T194A; M = -7.522): 32.1474 and 24.1931 and 33.6304 and 28.9237 and 30.7017 and 33.27 and 42.7604 and 43.2488 and 44.1811
- cAMP accumulation response, individual replicate values of the concentration-response curve (hTA1 T194A; M = -8): 31.2036 and 13.6773 and 15.1603 and 14.8971 and 13.5142 and 22.7372 and 24.6907 and 22.9592
- cAMP accumulation response, individual replicate values of the concentration-response curve (hTA1 T194A; M = -8.522): 3.836 and 0.5999 and 3.97 and 8.1802 and 2.846 (2×) and 8.885 and 8.264 and 10.2172
- cAMP accumulation response, individual replicate values of the concentration-response curve (hTA1 T194A; M = -9): 2.487 and 2.892 and 1.813 and 0.4755 and 2.056 and 3.424 and 1.293 (2×)
- cAMP accumulation response, individual replicate values of the concentration-response curve (hTA1 T194A; M = -9.522): 1.678 and 0.1954 and 0.8695 and 0.08035 (2×) and -0.5123 and 0.3166 and -0.7046 and 0.139
- cAMP accumulation response, individual replicate values of the concentration-response curve (hTA1 T194A; M = -10): -0.6135 and -0.209 and 0.1954 and -0.5123 and -0.3148 and -0.08302 and -0.1718 and -0.749
- cAMP accumulation response, individual replicate values of the concentration-response curve (hTA1 T194A; M = -10.522): -0.4787 and -1.692 and -1.557 and -1.303 (2×) and -1.5 and -0.7934 and -0.6602 and -0.6158
- cAMP accumulation response, individual replicate values of the concentration-response curve (hTA1 T194A; M = -11): -1.4224 (2×) and -0.7483 and -0.9074 and -0.7099 and -0.4382 and -0.8378 and 0.05017
- cAMP accumulation response, individual replicate values of the concentration-response curve (hTA1 T194A; M = -11.522): 0.4651 and -1.018 and -1.153 and -0.5123 and -0.7099 (2×) and -0.4382 and -1.015 and -0.6602
- cAMP accumulation response, individual replicate values of the concentration-response curve (hTA1 T194A; M = -12): -0.07421 (2×) and -1.962 and -1.698 and -1.105 and -0.1274 and -0.6602 and -0.1718
- cAMP accumulation response, individual replicate values of the concentration-response curve (hTA1 T194A; M = -12.522): 0.0606 and 1.004 and 0.8695 and -0.9074 and -0.7099 and -0.3148 and -0.1718 and -0.305 and 0.1834
- ΔEmax values (each mutant value - WT average) (hTA1 T194A; minus WT average): 0
